Experimental data: patent US12077503B2, “Substituted cyclic amides and their use as herbicides” (FMC CORPORATION, priority 2015, dated 2024)

Experiments:
Format in all cases: in vivo
[1] = tested on: barnyardgrass (Echinochloa crus-galli); test: Test B flooded paddy test; details: Echinochloa crus-galli, 250 g ai/ha, Flood; 0 to 100 scale where 0 is no effect and 100 is complete control; read-out: Barnyardgrass plant response rating
Procedure, shortened: (§1)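 Plants at 2-leaf stage flooded to 3 cm above soil, with compounds applied directly to paddy water and that depth maintained. Plants kept in greenhouse 13–15 d. Visual rating versus controls on a 0 (no effect) to 100 (complete control) scale.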

[2] = tested on: rice (Oryra sativa); test: Test B flooded paddy test; details: Oryza sativa, 250 g ai/ha, Flood; 0 to 100 scale where 0 is no effect and 100 is complete control; read-out: Rice plant response rating
Procedure, shortened: as §1

[3] = tested on: ducksalad (Heteranthera limosa); test: Test B flooded paddy test; details: Heteranthera limosa, 250 g ai/ha, Flood; 0 to 100 scale where 0 is no effect and 100 is complete control; read-out: Ducksalad plant response rating
Procedure, shortened: as §1

[4] = tested on: sedge, umbrella (small-flower umbrella sedge, Cyperus difformis); test: Test B flooded paddy test; details: Cyperus difformis, 250 g ai/ha, Flood; 0 to 100 scale where 0 is no effect and 100 is complete control; read-out: Sedge, Umbrella plant response rating
Procedure, shortened: as §1

[5] = tested on: Galium (catchweed bedstraw, Galium aparine); test: Test A postemergence; details: Galium, post-emergence, 240 h, read-out: Galium plant response rating (0 to 100 scale); for pest or weed control at 125 g/ha: 125 g ai/ha, postemergence, visual injury vs untreated controls after approx. 10 d, 0 = no effect, 100 = complete control; for pest or weed control at 31 g/ha: Postemergence, 31 g ai/ha, 0 is no effect, 100 is complete control
Procedure, shortened: (§2)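 Compounds were formulated in a non-phytotoxic solvent mixture with surfactant and applied as a preemergence directed soil spray after seeding, or sprayed postemergence over plants 2 to 10 cm tall at the one- to two-leaf stage. Evaluation after about 10 d compared treated with untreated controls, using a scale from 0 (no effect) to 100 (complete control).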

[6] = tested on: pigweed (Amaranthus retroflexus); test: Test A postemergence; details: Amaranthus retroflexus, post-emergence, 240 h, read-out: Pigweed plant response rating (0 to 100 scale); for pest or weed control at 125 g/ha: 125 g ai/ha, postemergence, visual injury vs untreated controls after approx. 10 d, 0 = no effect, 100 = complete control; for pest or weed control at 31 g/ha: Postemergence, 31 g ai/ha, 0 is no effect, 100 is complete control
Procedure, shortened: as §2

[7] = tested on: giant foxtail (Setaria faberii); test: Test A postemergence; details: Setaria faberi, post-emergence, 240 h, read-out: Foxtail, Giant plant response rating (0 to 100 scale); for pest or weed control at 125 g/ha: 125 g ai/ha, postemergence, visual injury vs untreated controls after approx. 10 d, 0 = no effect, 100 = complete control; for pest or weed control at 31 g/ha: Postemergence, 31 g ai/ha, 0 is no effect, 100 is complete control
Procedure, shortened: as §2

[8] = tested on: ryegrass, Italian (Italian ryegrass, Lolium multiflorum); test: Test A postemergence; details: Lolium multiflorum, post-emergence, 240 h, read-out: Ryegrass, Italian plant response rating (0 to 100 scale); for pest or weed control at 125 g/ha: 125 g ai/ha, postemergence, visual injury vs untreated controls after approx. 10 d, 0 = no effect, 100 = complete control; for pest or weed control at 31 g/ha: Postemergence, 31 g ai/ha, 0 is no effect, 100 is complete control
Procedure, shortened: as §2

[9] = tested on: corn (Zea mays); test: Test A postemergence; details: Zea mays, post-emergence, 240 h, read-out: Corn plant response rating (0 to 100 scale); for plant injury at 125 g/ha: 125 g ai/ha, postemergence, visual injury vs untreated controls after approx. 10 d, 0 = no effect, 100 = complete control; for plant injury at 31 g/ha: Postemergence, 31 g ai/ha, 0 is no effect, 100 is complete control
Procedure, shortened: as §2

[10] = tested on: barnyardgrass (Echinochloa crus-galli); test: Test A postemergence; details: Echinochloa crus-galli, post-emergence, 240 h, read-out: Barnyardgrass plant response rating (0 to 100 scale); for pest or weed control at 125 g/ha: 125 g ai/ha, postemergence, visual injury vs untreated controls after approx. 10 d, 0 = no effect, 100 = complete control; for pest or weed control at 31 g/ha: Postemergence, 31 g ai/ha, 0 is no effect, 100 is complete control
Procedure, shortened: as §2

[11] = tested on: Kochia (Kochia scoparia); test: Test A postemergence; details: Bassia scoparia, post-emergence, 240 h, read-out: Kochia plant response rating (0 to 100 scale); for pest or weed control at 125 g/ha: 125 g ai/ha, postemergence, visual injury vs untreated controls after approx. 10 d, 0 = no effect, 100 = complete control; for pest or weed control at 31 g/ha: Postemergence, 31 g ai/ha, 0 is no effect, 100 is complete control
Procedure, shortened: as §2

[12] = tested on: ragweed (common ragweed, Ambrosia elatior); test: Test A postemergence; details: Ambrosia artemisiifolia, post-emergence, 240 h, read-out: Ragweed plant response rating (0 to 100 scale); for pest or weed control at 125 g/ha: 125 g ai/ha, postemergence, visual injury vs untreated controls after approx. 10 d, 0 = no effect, 100 = complete control; for pest or weed control at 31 g/ha: Postemergence, 31 g ai/ha, 0 is no effect, 100 is complete control
Procedure, shortened: as §2

[13] = tested on: blackgrass (Alopecurus myosuroides); test: Test A postemergence; details: Alopecurus myosuroides, post-emergence, 240 h, read-out: Blackgrass plant response rating (0 to 100 scale); for pest or weed control at 125 g/ha: 125 g ai/ha, postemergence, visual injury vs untreated controls after approx. 10 d, 0 = no effect, 100 = complete control; for pest or weed control at 31 g/ha: Postemergence, 31 g ai/ha, 0 is no effect, 100 is complete control
Procedure, shortened: as §2

[14] = tested on: wheat (Triticum aestivum); test: Test A postemergence; details: Triticum aestivum, post-emergence, 240 h, Postemergence, 31 g ai/ha; 0 is no effect, 100 is complete control; read-out: Wheat plant response rating (0 to 100 scale)
Procedure, shortened: as §2

[15] = tested on: pigweed (Amaranthus retroflexus); test: Test A preemergence; details: Amaranthus retroflexus, pre-emergence, 240 h, 0 to 100 scale where 0 is no effect and 100 is complete control, read-out: Pigweed plant response rating; for pest or weed control at 31 g/ha: 31 g ai/ha, Preemergence; for pest or weed control at 125 g/ha: 125 g ai/ha, preemergence, visual injury rating, approximately 10 d
[16] = tested on: giant foxtail (Setaria faberii); test: Test A preemergence; details: Setaria faberi, pre-emergence, 240 h, 0 to 100 scale where 0 is no effect and 100 is complete control, read-out: Foxtail, Giant plant response rating; for pest or weed control at 31 g/ha: 31 g ai/ha, Preemergence; for pest or weed control at 125 g/ha: 125 g ai/ha, preemergence, visual injury rating, approximately 10 d
Procedure, shortened: as §2

[17] = tested on: ryegrass, Italian (Italian ryegrass, Lolium multiflorum); test: Test A preemergence; details: Lolium multiflorum, pre-emergence, 240 h, 0 to 100 scale where 0 is no effect and 100 is complete control, read-out: Ryegrass, Italian plant response rating; for pest or weed control at 31 g/ha: 31 g ai/ha, Preemergence; for pest or weed control at 125 g/ha: 125 g ai/ha, preemergence, visual injury rating, approximately 10 d
Procedure, shortened: as §2

[18] = tested on: barnyardgrass (Echinochloa crus-galli); test: Test A preemergence; details: Echinochloa crus-galli, pre-emergence, 240 h, 0 to 100 scale where 0 is no effect and 100 is complete control, read-out: Barnyardgrass plant response rating; for pest or weed control at 31 g/ha: 31 g ai/ha, Preemergence; for pest or weed control at 125 g/ha: 125 g ai/ha, preemergence, visual injury rating, approximately 10 d
Procedure, shortened: as §2

[19] = tested on: Kochia (Kochia scoparia); test: Test A preemergence; details: Bassia scoparia, pre-emergence, 240 h, 0 to 100 scale where 0 is no effect and 100 is complete control, read-out: Kochia plant response rating; for pest or weed control at 31 g/ha: 31 g ai/ha, Preemergence; for pest or weed control at 125 g/ha: 125 g ai/ha, preemergence, visual injury rating, approximately 10 d
Procedure, shortened: as §2

[20] = tested on: ragweed (common ragweed, Ambrosia elatior); test: Test A preemergence; details: Ambrosia artemisiifolia, pre-emergence, 240 h, 0 to 100 scale where 0 is no effect and 100 is complete control, read-out: Ragweed plant response rating; for pest or weed control at 31 g/ha: 31 g ai/ha, Preemergence; for pest or weed control at 125 g/ha: 125 g ai/ha, preemergence, visual injury rating, approximately 10 d
Procedure, shortened: as §2

O=C1NC[C@H](c2ccc(Cl)c(F)c2)[C@H]1C(=O)Nc1cccc(F)c1F [Compound 1262]
pest or weed control at 250 g/ha [1]: 65% | pest or weed control at 250 g/ha [2]: 10% | pest or weed control at 250 g/ha [3]: 100% | pest or weed control at 250 g/ha [4]: 0% | pest or weed control at 125 g/ha [5]: 70% | pest or weed control at 31 g/ha [5]: 30% | pest or weed control at 125 g/ha [6]: 70% | pest or weed control at 31 g/ha [6]: 30% | pest or weed control at 125 g/ha [7]: 80% | pest or weed control at 31 g/ha [7]: 70% | pest or weed control at 125 g/ha [8]: 20% | pest or weed control at 31 g/ha [8]: 0% | plant injury at 125 g/ha [9]: 60% | plant injury at 31 g/ha [9]: 20% | pest or weed control at 125 g/ha [10]: 90% | pest or weed control at 31 g/ha [10]: 70% | pest or weed control at 125 g/ha [11]: 50% | pest or weed control at 31 g/ha [11]: 20% | pest or weed control at 125 g/ha [12]: 30% | pest or weed control at 31 g/ha [12]: 0% | pest or weed control at 125 g/ha [13]: 50% | pest or weed control at 31 g/ha [13]: 0% | plant injury at 31 g/ha [14]: 0% | pest or weed control at 31 g/ha [15]: 0% | pest or weed control at 125 g/ha [15]: 50% | pest or weed control at 31 g/ha [16]: 90% | pest or weed control at 125 g/ha [16]: 90% | pest or weed control at 31 g/ha [17]: 0% | pest or weed control at 125 g/ha [17]: 0% | pest or weed control at 31 g/ha [18]: 70% | pest or weed control at 125 g/ha [18]: 90% | pest or weed control at 31 g/ha [19]: 20% | pest or weed control at 125 g/ha [19]: 60% | pest or weed control at 31 g/ha [20]: 0% | pest or weed control at 125 g/ha [20]: 0%

Cn1ccc2ccc([C@H]3CNC(=O)[C@@H]3C(=O)Nc3cccc(F)c3F)cc21 [Compound 1263]
pest or weed control at 250 g/ha [1]: 0% | pest or weed control at 250 g/ha [2]: 0% | pest or weed control at 250 g/ha [3]: 30% | pest or weed control at 250 g/ha [4]: 0% | pest or weed control at 125 g/ha [5]: 0% | pest or weed control at 31 g/ha [5]: 0% | pest or weed control at 125 g/ha [6]: 0% | pest or weed control at 31 g/ha [6]: 0% | pest or weed control at 125 g/ha [7]: 0% | pest or weed control at 31 g/ha [7]: 0% | pest or weed control at 125 g/ha [8]: 0% | pest or weed control at 31 g/ha [8]: 0% | plant injury at 125 g/ha [9]: 0% | plant injury at 31 g/ha [9]: 0% | pest or weed control at 125 g/ha [10]: 0% | pest or weed control at 31 g/ha [10]: 0% | pest or weed control at 125 g/ha [11]: 0% | pest or weed control at 31 g/ha [11]: 0% | pest or weed control at 125 g/ha [12]: 0% | pest or weed control at 31 g/ha [12]: 0% | pest or weed control at 125 g/ha [13]: 0% | pest or weed control at 31 g/ha [13]: 0% | plant injury at 31 g/ha [14]: 0% | pest or weed control at 31 g/ha [15]: 0% | pest or weed control at 125 g/ha [15]: 0% | pest or weed control at 31 g/ha [16]: 0% | pest or weed control at 125 g/ha [16]: 0% | pest or weed control at 31 g/ha [17]: 0% | pest or weed control at 125 g/ha [17]: 0% | pest or weed control at 31 g/ha [18]: 0% | pest or weed control at 125 g/ha [18]: 0% | pest or weed control at 31 g/ha [19]: 0% | pest or weed control at 125 g/ha [19]: 0% | pest or weed control at 31 g/ha [20]: 0% | pest or weed control at 125 g/ha [20]: 0%
